The record followed here is patent publication US20040214850A1, “1-glyoxylamide indolizines for treating cancer” (Synta Pharmaceuticals Corp., priority 2001, published 2004).

Molecules are shown by their SMILES.

In assay [1] the test system is MDA435 (human breast cancer). Nature of the assay: In vitro anti-cancer activity, MTS growth inhibition assay, MDA-435. The assay is classed as cell-based. The settings on record: MDA-435 cells, 72 hours. As to the method:
(§1) The in vitro activity of the compounds was determined in the following seven human cancer cell lines. MDA435 (human breast cancer), MIP101 (human colon cancer), HL-60 (human myeloid leukemia), U937 (human leukemia), p388 (murine leukemia), DU-145 (human prostate cancer), MES-SA (human uterine sarcoma) were obtained from ATCC (American Type of Culture Collection).
(§2) The cell lines were maintained in RPMI1640 (GIBCO) supplemented with 10% FCS, 100 units/ml penicillin, 100 ug/ml streptomycin, and 2 mM L-glutamine. The cells were split every third day and diluted to a concentration of 2×10^5 cells/ml one day before experiment. All experiments were performed on exponentially growing cell culture. Cell densities were 2.5×10^4 cells/ml in all experiment.
(§3) A stock solution of Compound (1) and a stock solution of Taxol (positive control) were prepared by dissolving the compound at a concentration of 1 mM in 100% DMSO. Final concentrations were obtained by diluting the stock solution directly into the tissue culture medium. Cells were incubated with varying concentrations of the compounds for 72 hours and the IC50 was determined by MTS (i.e. 3-(4,5,-dimethylthiazol-2-yl)-2,5-diphenyl tetrazolium bromide) assay. IC50 stands for the concentration of compound required to inhibit 50% tumor cell growth.
On the technique in general: Tetrazolium dyes change colour on reduction, which living cells bring about.

In assay [2] the test system is human breast MDA435 tumors. Nature of the assay: Tumor growth inhibition assay, human breast tumor (MDA435) xenograft in nude mice. The assay is classed as in vivo, nude mice (CD-1 nu/nu). Here is the method: The in vivo anti-cancer efficacy of Compound (1) was assessed in tumor bearing mice using a tumor growth inhibition assay. Human breast tumor (MDA-435) cells were implanted by injection of a tumor cell suspension subcutaneously in the flank of a nude mouse. Treatment of the tumor with an experimental compound began after the tumor had been established (volume was approximately 100 mm^3). The animal then began a multiple injection schedule where the compound was administered orally. Tumors were measured two times a week. During the course of this assay, animals were monitored daily for signs of toxicity including body weight loss.
A supplemented media was prepared from 50% DMEM/Dulbecco Modified Eagle Medium (High Glucose), 50% RPMI 1640, 10% FBS/Fetal Bovine Serum (Hybridoma Tested; Sterile Filtered), 1% L-Glutamine, 1% Penicillin-Streptomycin, 1% MEM Sodium Pyruvate, 1% MEM Non-Essential Amino Acids. […]
The flask was washed with 10 ml of sterile room temperature phosphate buffered saline (PBS). […] The supernatant was aspirated and the cell pellet was resuspended in 10 ml of supplemented media and the cells were counted. […]
The above procedure for trypsinizing and centrifuging the cells were followed. The supernatant was aspirated and the cell pellet was resuspended in 10 ml of sterile PBS and the cells were counted. […]
(Xenograft models place foreign cells or tissue in a host animal.)

In assay [3] the test system is MES-SA/DX5 (multi-drug resistant human uterine sarcoma cell line). Nature of the assay: In vitro activity against multi-drug resistant cell line MES-SA/DX5. Format: cell-based. The conditions noted are these: MES-SA/Dx5, MES-SA/DX-5 MDR cells (Table 2). Here is the method:
as §2, §3
(§4) In vitro activity was determined in two MDR (Multi Drug Resistant) human cancer cell lines. HL-60/TX1000 was isolated in vitro by subculturing HL-60 in progressively higher concentration of Taxol. HL-60/TX1000 cells over-express mdr-1 mRNA and p-glycoprotein, as determined by western blot and immunofluorescence labeling with antiPGP antibodies. The cell is cross-resistant to Taxol, Vincristine, Adriamycin, Etoposide and Doxorubicin. MES-SA/Dx5 was established in the presence of increasing concentrations of Doxorubicin. […] MES-SA/Dx5 was purchased from ATCC.
(§5) The procedure for culturing the cells and assaying cancer cell growth inhibition were as described in Example 3.
The protocol described in Examples 9-10 was used to assay inhibition by Compounds (2)-(8) on the growth of the multidrug resistant cancer cell line MES-SA/DX5, which is a MDR uterine sarcoma cell line.

Assay [4] deals with MES-SA (human uterine sarcoma). Briefly: In vitro anti-cancer activity, MTS growth inhibition assay, MES-SA. The assay is classed as cell-based. The settings on record: MES-SA cells, 72 hours, MTS assay (Table 1), read-out: IC50. As to the method:
as §1, §2, §3
The protocol described in Examples 9-10 was used to assay inhibition by Compounds (20) (21) (24) and (28) on the growth of cancer cell lines MES-SA (human uterine sarcoma cell line) and DU-145 (human prostate cancer).

Assay [5] concerns HL-60/TX1000 (multi-drug resistant human myeloid leukemia cell line). Briefly: In vitro activity against multi-drug resistant cell line HL-60/TX1000. Format: cell-based. The conditions noted are these: HL60/TX1000, HL-60/TX1000 MDR cells (Table 2). Here is the method: as §2, §3, §4, §5
A further assay deals with U937 (human leukemia). Briefly: In vitro anti-cancer activity, MTS growth inhibition assay, U-937. The settings on record: U-937 cells, 72 hours. The assay is classed as cell-based. Here is the method: as §1, §2, §3

What is called IC50 is the concentration that gives 50% inhibition.

On to `Cc1cc(NC(=O)C(=O)c2cc(Cc3ccc(C#N)cc3)n3ccccc23)sn1` [Compound (1), 2-(3-(4-cyanobenzyl)-indolizin-1-yl)-N-(3-methyl-isothiazol-5-yl)-2-oxo-acetamide], for which the IC50 in assay [1] amounted to 50 nM; in assay [3], 50 nM; in assay [4] it was 10 nM; in assay [5], 20 nM; in the assay on U937 (human leukemia), 50 nM. Also, the tumor growth inhibition result in assay [2] (MDA435 in nude mice, 25 mg/kg and 50 mg/kg orally, 3 times a week for 3 weeks, FIG. 1) is reported as “significantly inhibits tumor growth”. Further, in assay [2] (MDA435 tumors in nude mice, administered orally), the “reduction of the volume of tumors” value is on record as “greater than 50%”.
